# Biological target: OGG1 (Homo sapiens (Human), UniProt O15527)
# Assay: In vitro OGG1 activity assay
# Format: biochemical
# Settings: 800 pM OGG1 enzyme, 2 nM human APEX1, 10 nM 8-oxoA:C substrate
# Method in brief: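 Read-out is fluorescein fluorescence, with compounds in DMSO added first, then enzyme and substrate. OGG1 excises its substrate base from a quenched fluorophore-labelled duplex, and surplus APEX1 cuts the resulting apurinic site. The duplex then melts and fluorescence rises in proportion to glycosylase activity.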
# OGG1, sequence (O15527 whole entry): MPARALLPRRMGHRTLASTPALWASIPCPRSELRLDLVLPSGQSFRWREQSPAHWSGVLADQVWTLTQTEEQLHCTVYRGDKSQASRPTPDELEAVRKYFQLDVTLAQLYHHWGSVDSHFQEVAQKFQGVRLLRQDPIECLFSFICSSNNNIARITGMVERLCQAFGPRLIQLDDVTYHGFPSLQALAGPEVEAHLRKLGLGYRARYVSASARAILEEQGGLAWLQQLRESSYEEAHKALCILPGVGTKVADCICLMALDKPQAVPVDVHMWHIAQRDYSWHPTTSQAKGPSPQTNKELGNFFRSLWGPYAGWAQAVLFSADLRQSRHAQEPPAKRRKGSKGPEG
row,Structure (SMILES),IC50 [nM]
1,"O=c1[nH]c2c(Br)cccc2n1[C@H]1CC[C@@H](C(=O)Nc2cnc(Cl)c(Cl)c2)CC1 [Example 185, Cis-4-(4-bromo-2-oxo-2,3-dihydro-1H-1,3-benzodiazol-1-yl)-N-(5,6-dichloropyridin-3-yl)cyclohexane-1-carboxamide]",1390
2,"COc1ccc(NC(=O)[C@H]2CC[C@@H](n3c(=O)[nH]c4c(F)cccc43)CC2)cc1 [Example 211, Cis-4-(4-fluoro-2-oxo-2,3-dihydro-1H-1,3-benzodiazol-1-yl)-N-(4-methoxyphenyl)cyclohexane-1-carboxamide]",153
3,"COc1cc(NC(=O)N2CCC(n3c(=O)[nH]c4c(Cl)cccc43)CC2)ccc1C [Example 114, 4-(4-Chloro-2-oxo-2,3-dihydro-1H-1,3-benzodiazol-1-yl)-N-(3-methoxy-4-methylphenyl)piperidine-1-carboxamide]",690
4,"COc1ncc(NC(=O)[C@H]2CC[C@@H](n3c(=O)[nH]c4c(OC)cccc43)CC2)cc1C [Example 208, Cis-4-(4-methoxy-2-oxo-2,3-dihydro-1H-1,3-benzodiazol-1-yl)-N-(6-methoxy-5-methylpyridin-3-yl)cyclohexane-1-carboxamide]",115
5,"Cc1cccc(NC(=O)[C@H]2CC[C@@H](n3c(=O)[nH]c4c(Br)cccc43)CC2)c1 [Example 143, (Cis)-4-(4-bromo-2-oxo-2,3-dihydro-1H-1,3-benzodiazol-1-yl)-N-(3-methylphenyl)cyclohexane-1-carboxamide]",1200
6,"COc1ccc(NC(=O)N2CCC(n3c(=O)[nH]c4c(-c5ccc(N)nc5)cccc43)CC2)cc1Cl [Example 99, 4-[4-(6-Aminopyridin-3-yl)-2-oxo-2,3-dihydro-1H-1,3-benzodiazol-1-yl]-N-(3-chloro-4-methoxyphenyl)piperidine-1-carboxamide]",1160
7,"COc1ccc(NC(=O)[C@H]2CC[C@@H](n3c(=O)[nH]c4ncccc43)CC2)cc1 [Example 234, Cis-N-(4-methoxyphenyl)-4-{2-oxo-1H,2H,3H-imidazo[4,5-b]pyridin-1-yl}cyclohexane-1-carboxamide]",572
8,"Cc1nc(NC(=O)N2CCC(n3c(=O)[nH]c4c(Br)cccc43)CC2)ccc1Cl [Example 111, 4-(4-Bromo-2-oxo-2,3-dihydro-1H-1,3-benzodiazol-1-yl)-N-(5-chloro-6-methylpyridin-2-yl)piperidine-1-carboxamide]",5810
9,"Cc1ccc(NC(=O)[C@H]2CC[C@@H](n3c(=O)[nH]c4c(Br)cccc43)CC2)c(O)c1 [Example 222, Cis-4-(4-bromo-2-oxo-2,3-dihydro-1H-1,3-benzodiazol-1-yl)-N-(2-hydroxy-4-methylphenyl)cyclohexane-1-carboxamide]",350
10,"COc1ccc(NC(=O)[C@H]2CC[C@@H](n3c(=O)[nH]c4ccc(F)cc43)CC2)cc1C [Example 217, Cis-4-(6-fluoro-2-oxo-2,3-dihydro-1H-1,3-benzodiazol-1-yl)-N-(4-methoxy-3-methylphenyl)cyclohexane-1-carboxamide]",586
11,"O=c1[nH]c2c(Br)cccc2n1[C@H]1CC[C@@H](C(=O)Nc2ccc(F)c(Cl)c2)CC1 [Example 162, (Cis)-4-(4-bromo-2-oxo-2,3-dihydro-1H-1,3-benzodiazol-1-yl)-N-(3-chloro-4-fluorophenyl)cyclohexane-1-carboxamide]",1290
12,"COc1cc(Cl)cc(NC(=O)[C@H]2CC[C@@H](n3c(=O)[nH]c4c(Br)cccc43)CC2)c1 [Example 163, (Cis)-4-(4-bromo-2-oxo-2,3-dihydro-1H-1,3-benzodiazol-1-yl)-N-(3-chloro-5-methoxyphenyl)cyclohexane-1-carboxamide]",3160
13,"Cc1nc2ccc(NC(=O)[C@H]3CC[C@@H](n4c(=O)[nH]c5c(Br)cccc54)CC3)cc2o1 [Example 203, Cis-4-(4-bromo-2-oxo-2,3-dihydro-1H-1,3-benzodiazol-1-yl)-N-(2-methyl-1,3-benzoxazol-6-yl)cyclohexane-1-carboxamide]",6270
14,"COc1ccc(NC(=O)N2CCC(n3c(=O)[nH]c4cc(C)ccc43)CC2)cc1Cl [Example 179, N-(3-Chloro-4-methoxyphenyl)-4-(5-methyl-2-oxo-2,3-dihydro-1H-1,3-benzodiazol-1-yl)piperidine-1-carboxamide]",1570
15,"Nc1cccc(-c2cccc3c2[nH]c(=O)n3C2CCN(C(=O)Nc3ccc(Cl)c(Cl)c3)CC2)c1 [Example 29, 4-[4-(3-Aminophenyl)-2-oxo-2,3-dihydro-1H-1,3-benzodiazol-1-yl]-N-(3,4-dichlorophenyl)piperidine-1-carboxamide]",2060
16,"COc1ccc(NC(=O)[C@H]2CC[C@@H](n3c(=O)[nH]c4ncccc43)CC2)cc1C [Example 233, Cis-N-(4-methoxy-3-methylphenyl)-4-{2-oxo-1H,2H,3H-imidazo[4,5-b]pyridin-1-yl}cyclohexane-1-carboxamide]",47.6

row,Structure (SMILES),IC50 [nM]
1,"CCc1ccc(NC(=O)N2CCC(n3c(=O)[nH]c4c(Br)cccc43)CC2)cc1 [Example 42, 4-(4-Bromo-2-oxo-2,3-dihydro-1H-1,3-benzodiazol-1-yl)-N-(4-ethylphenyl)piperidine-1-carboxamide]",2410
2,"Cc1ccc2c(c1)[nH]c(=O)n2C1CCN(C(=O)Nc2ccc(I)cc2)CC1 [Example 11, N-(4-iodophenyl)-4-(5-methyl-2-oxo-2,3-dihydro-1H-1,3-benzodiazol-1-yl)piperidine-1-carboxamide]",1780
3,"CNC(=O)c1cccc2c1[nH]c(=O)n2[C@H]1CC[C@@H](C(=O)Nc2ccc(C)c(OC)c2)CC1 [Example 259, N-Methyl-2-oxo-1-[cis-4-[(3-methoxy-4-methylphenyl)carbamoyl]cyclohexyl]-2,3-dihydro-1H-1,3-benzodiazole-4-carboxamide]",3.94
4,"COc1ccc(NC(=O)N2CCC(n3c(=O)[nH]c4c(F)cccc43)CC2)cc1Cl [Example 182, N-(3-Chloro-4-methoxyphenyl)-4-(4-fluoro-2-oxo-2,3-dihydro-1H-1,3-benzodiazol-1-yl)piperidine-1-carboxamide]",4790
5,"Cc1cccc2c1[nH]c(=O)n2C1CCN(C(=O)Nc2ccc(I)cc2)CC1 [Example 4, N-(4-iodophenyl)-4-(4-methyl-2-oxo-2,3-dihydro-1H-1,3-benzodiazol-1-yl)piperidine-1-carboxamide]",660
6,"O=C(Nc1ccc(I)cc1)N1CCC(n2c(=O)[nH]c3c(-c4ccc[nH]4)cccc32)CC1 [Example 25, N-(4-iodophenyl)-4-[2-oxo-4-(1H-pyrrol-2-yl)-2,3-dihydro-1H-1,3-benzodiazol-1-yl]piperidine-1-carboxamide]",765
7,"COc1cc(NC(=O)[C@H]2CC[C@@H](n3c(=O)[nH]c4c(NC(=O)[C@@H]5CCN5)cccc43)CC2)ccc1C [Example 287, (2S)—N-{2-Oxo-1-[cis-4-[(3-methoxy-4-methylphenyl)carbamoyl]cyclohexyl]-2,3-dihydro-1H-1,3-benzodiazol-4-yl}azetidine-2-carboxamide]",27.1
8,"Cc1cccc(NC(=O)[C@H]2CC[C@@H](n3c(=O)[nH]c4c(Br)cccc43)CC2)c1C [Example 167, (Cis)-4-(4-bromo-2-oxo-2,3-dihydro-1H-1,3-benzodiazol-1-yl)-N-(2,3-dimethylphenyl)cyclohexane-1-carboxamide]",3890
9,"COc1cc(NC(=O)[C@H]2CC[C@@H](n3c(=O)[nH]c4c(Br)cccc43)CC2)ccc1C#N [Example 159, (Cis)-4-(4-bromo-2-oxo-2,3-dihydro-1H-1,3-benzodiazol-1-yl)-N-(4-cyano-3-methoxyphenyl)cyclohexane-1-carboxamide]",4940
10,"Cc1cccc2c1[nH]c(=O)n2C1CCN(C(=O)Nc2ccc(Cl)cc2)CC1 [Example 7, N-(4-chlorophenyl)-4-(4-methyl-2-oxo-2,3-dihydro-1H-1,3-benzodiazol-1-yl)piperidine-1-carboxamide]",1080
11,"Cc1cc(NC(=O)[C@H]2CC[C@@H](n3c(=O)[nH]c4ccc(F)cc43)CC2)ccc1O [Example 220, Cis-4-(6-fluoro-2-oxo-2,3-dihydro-1H-1,3-benzodiazol-1-yl)-N-(4-hydroxy-3-methylphenyl)cyclohexane-1-carboxamide]",8630
12,"CNCCN(C)C(=O)c1cccc2c1[nH]c(=O)n2[C@H]1CC[C@@H](C(=O)Nc2ccc(C)c(OC)c2)CC1 [Example 266, N-Methyl-N-[2-(methylamino)ethyl]-2-oxo-1-[cis-4-[(3-methoxy-4-methylphenyl)carbamoyl]cyclohexyl]-2,3-dihydro-1H-1,3-benzodiazole-4-carboxamide]",8.16
13,"COc1cc(NC(=O)[C@H]2CC[C@@H](n3c(=O)[nH]c4c(NC(=O)CN)cccc43)CC2)ccc1C [Example 255, Cis-4-[4-(2-aminoacetamido)-2-oxo-2,3-dihydro-1H-1,3-benzodiazol-1-yl]-N-(3-methoxy-4-methylphenyl)cyclohexane-1-carboxamide]",30.9
14,"COc1cc(NC(=O)[C@H]2CC[C@@H](n3c(=O)[nH]c4c(Br)cccc43)CC2)cc(C(F)(F)F)c1 [Example 158, (Cis)-4-(4-bromo-2-oxo-2,3-dihydro-1H-1,3-benzodiazol-1-yl)-N-[3-methoxy-5-(trifluoromethyl)phenyl]cyclohexane-1-carboxamide]",6050
15,"COc1cc(NC(=O)[C@H]2CC[C@@H](n3c(=O)[nH]c4c(NCC(F)(F)F)cccc43)CC2)ccc1C [Example 323, Cis-N-(3-methoxy-4-methylphenyl)-4-{2-oxo-4-[(2,2,2-trifluoroethyl)amino]-2,3-dihydro-1H-1,3-benzodiazol-1-yl}cyclohexane-1-carboxamide]",226
16,"O=C(Nc1ccc(Cl)c(Cl)c1)N1CCC(n2c(=O)[nH]c3c(O)cccc32)CC1 [Example 9, N-(3,4-dichlorophenyl)-4-(4-hydroxy-2-oxo-2,3-dihydro-1H-1,3-benzodiazol-1-yl)piperidine-1-carboxamide]",796

# — patent US11970474B2, “Substituted benzodiazoles and use thereof in therapy” (THOMAS HELLEDAYS STIFTELSE FÖR MEDICINSK FORSKNING, priority 2018, dated 2024)
